# Results as given in PubChem BioAssay (NCI).
# “And” between values parts separate entries of the source, which are not always exact repeats. Identical values can stand only once.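 Cells were grown in 96-well plates and exposed to each compound for 48 hours at five concentrations; endpoints were interpolated linearly between bracketing concentrations, or set to the highest concentration if not reached. The concentration for 50% growth inhibition is given as GI50. Definition used: TGI = concentration required for complete inhibition of growth.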
# Tests used:
# Assay in all cases: growth of human tumour cells (NCI), 48 h
# [1] = tested on: SF-268 CNS
# [2] = tested on: HCT-116 colon
# [3] = tested on: MALME-3M melanoma
# [4] = tested on: 786-0 renal
# [5] = tested on: OVCAR-3 ovarian
# [6] = tested on: U251 CNS
# [7] = tested on: MDA-N
# [8] = tested on: PC-3 prostate
# [9] = tested on: A549 NSCLC
# [10] = tested on: RPMI-8226 leukemia
# [11] = tested on: UO-31 renal
compound,measurement,setting,value
COC(=O)C1CC23C=CCN4CC(C2C)C2(c5ccccc5NC12)C43 (centres undefined),TGI,[1],> 100 µM
same,TGI,[2],> 100 µM
same,TGI,[3],> 100 µM
same,TGI,[4],> 100 µM
same,TGI,[5],> 100 µM
same,TGI,[6],> 100 µM
same,TGI,[7],> 100 µM
same,TGI,[8],> 100 µM
same,TGI,[9],> 100 µM
same,TGI,[10],> 100 µM
NC(=S)NNC(=S)NC(=O)c1ccco1,TGI,[1],> 10 µM
same,TGI,[11],> 10 µM
same,TGI,[2],> 10 µM
same,TGI,[3],> 10 µM
same,TGI,[4],> 10 µM
same,TGI,[5],> 10 µM
same,TGI,[6],> 10 µM
same,TGI,[7],> 10 µM
same,TGI,[9],> 10 µM
same,TGI,[10],> 10 µM
O=c1c(O)cccn1C1OC(CO)C(O)C1O (centres undefined),TGI,[1],> 100 µM
same,TGI,[11],> 100 µM
same,TGI,[2],> 100 µM
same,TGI,[3],> 100 µM
same,TGI,[4],> 100 µM
same,TGI,[6],> 100 µM
same,TGI,[9],> 100 µM
same,TGI,[10],> 100 µM
O=c1c2cc(Br)ccc2ncn1COCc1ccccc1,TGI,[11],> 100 µM
same,TGI,[2],> 100 µM
same,TGI,[4],> 100 µM
same,TGI,[5],> 100 µM
same,TGI,[6],> 100 µM
same,TGI,[9],> 100 µM
CCC1(OC(=O)CN)C(=O)OCc2c1cc1n(c2=O)Cc2cc3cc4c(cc3nc2-1)OCO4 (centres undefined),GI50,[1],< 0.01 µM
same,TGI,[1],> 100 µM
same,GI50,[11],< 0.01 µM and 0.0614 µM
same,TGI,[11],0.151 µM and 0.4 µM
same,GI50,[3],0.287 µM
same,TGI,[3],1.42 µM
same,GI50,[5],0.196 µM and 0.131 µM
same,TGI,[5],1.05 µM and 0.554 µM
same,GI50,[6],< 0.01 µM
same,TGI,[6],0.0195 µM
same,GI50,[9],< 0.01 µM
same,TGI,[9],1.2 µM and 0.347 µM
same,GI50,[10],0.0253 µM and 0.0231 µM
Cc1cc2nc(-c3c(N)ncc(C#N)c3-c3ccc(Cl)cc3)[nH]c2cc1C,GI50,[1],19.8 µM
same,TGI,[1],84.2 µM
same,GI50,[2],3.47 µM
same,TGI,[2],19.7 µM
same,GI50,[3],14.5 µM
same,TGI,[3],78.8 µM
same,GI50,[5],13.9 µM
same,TGI,[5],76 µM
same,GI50,[6],5.48 µM
same,TGI,[6],21.4 µM
same,GI50,[8],6.59 µM
same,TGI,[8],39.3 µM
same,GI50,[9],4.17 µM
same,TGI,[9],24.9 µM
same,GI50,[10],5.55 µM
same,TGI,[10],> 100 µM
COC(=O)[C@@H]1C=C[C@H](NC(C)=O)C1,TGI,[11],> 100 µM
same,TGI,[2],> 100 µM
same,TGI,[3],> 100 µM
same,TGI,[5],> 100 µM
same,TGI,[6],> 100 µM
same,TGI,[7],> 100 µM
same,TGI,[8],> 100 µM
same,TGI,[10],> 100 µM
O=[N+]([O-])c1ccc2nc(/C=C(\O)c3ccc(Cl)cc3)c(/C=C(\O)c3ccc(Cl)cc3)nc2c1,TGI,[1],> 100 µM
same,TGI,[11],> 100 µM
same,TGI,[2],> 100 µM
same,TGI,[3],> 100 µM
same,TGI,[4],> 100 µM
same,TGI,[5],> 100 µM
same,TGI,[6],> 100 µM
same,TGI,[7],> 100 µM
same,TGI,[8],> 100 µM
same,TGI,[9],> 100 µM
COc1cc2oc(-c3ccc4c(c3)OCO4)c(OC)c(=O)c2c(O)c1OC,TGI,[1],> 50 µM
same,TGI,[11],> 50 µM
same,TGI,[2],> 50 µM
same,TGI,[3],> 50 µM
same,TGI,[4],> 50 µM
same,TGI,[5],> 50 µM
same,TGI,[6],> 50 µM
same,TGI,[7],> 50 µM
same,TGI,[8],> 50 µM
same,TGI,[9],> 50 µM
C=CCOC1(CC=C)C(=O)OC2C(O)COC21O (centres undefined),TGI,[1],> 100 µM
same,TGI,[11],> 100 µM
same,TGI,[2],> 100 µM
same,TGI,[3],> 100 µM
same,TGI,[4],> 100 µM
same,TGI,[5],> 100 µM
same,TGI,[6],> 100 µM
same,TGI,[7],> 100 µM
same,TGI,[8],> 100 µM
same,TGI,[9],> 100 µM
CC(C)(C)C(=O)N1CCN(C=O)C1=S,TGI,[1],> 100 µM
same,TGI,[11],60.2 µM
same,TGI,[2],> 100 µM
same,TGI,[3],> 100 µM
same,TGI,[4],> 100 µM
same,TGI,[5],> 100 µM
same,TGI,[6],> 100 µM
same,TGI,[8],> 100 µM
same,TGI,[9],> 100 µM
same,TGI,[10],> 100 µM
Cn1c(=O)n(CC2CS2)c2ccccc21 (centres undefined),TGI,[1],> 100 µM
same,TGI,[11],> 100 µM
same,TGI,[2],> 100 µM
same,TGI,[3],> 100 µM
same,TGI,[5],> 100 µM
same,TGI,[9],> 100 µM
same,TGI,[10],> 100 µM
COc1ccc(OC)c(C[P+](c2ccccc2)(c2ccccc2)c2ccccc2)c1,TGI,[1],> 100 µM
same,TGI,[11],79.4 µM
same,TGI,[2],14.4 µM
same,TGI,[3],23.3 µM
same,TGI,[4],> 100 µM
same,TGI,[5],> 37.3 µM
same,TGI,[7],29.8 µM
same,TGI,[8],8.56 µM
same,TGI,[9],> 56.4 µM
same,TGI,[10],6.39 µM
N#C/C(C(=O)Nc1ccccc1)=C(/N)N1CCCCC1,TGI,[11],> 100 µM
same,TGI,[2],> 100 µM
same,TGI,[4],> 100 µM
same,TGI,[5],> 100 µM
same,TGI,[6],> 100 µM
same,TGI,[7],> 100 µM
same,TGI,[8],> 100 µM
same,TGI,[9],> 100 µM
same,TGI,[10],> 100 µM
COc1cc2c(c(OC)c1)C(=O)O[C@H](C)CCCC/C=C/C2,TGI,[11],> 30.8 µM
same,TGI,[2],38.2 µM
same,TGI,[3],31.3 µM
same,TGI,[4],27.5 µM
same,TGI,[5],28 µM
same,TGI,[6],30.5 µM
same,TGI,[7],26.4 µM
same,TGI,[9],> 100 µM
same,TGI,[10],25.6 µM
Cc1nc(Nc2nc3ccccc3[nH]2)nc(Cl)c1CCCl,TGI,[1],> 100 µM
same,TGI,[11],> 100 µM
same,TGI,[2],> 100 µM
same,TGI,[3],> 100 µM
same,TGI,[4],> 100 µM
same,TGI,[6],> 100 µM
same,TGI,[7],> 100 µM
same,TGI,[8],> 100 µM
same,TGI,[9],> 100 µM
same,TGI,[10],> 100 µM
O=C1c2ccccc2C(=O)c2nn(N=P(CP(=Nn3nc4c(n3)C(=O)c3ccccc3C4=O)(c3ccccc3)c3ccccc3)(c3ccccc3)c3ccccc3)nc21,TGI,[1],> 100 µM
same,TGI,[2],> 100 µM
same,TGI,[3],> 100 µM
same,TGI,[4],> 100 µM
same,TGI,[5],> 100 µM
same,TGI,[6],> 100 µM
same,TGI,[7],> 100 µM
same,TGI,[8],> 100 µM
same,TGI,[9],> 100 µM
same,TGI,[10],> 100 µM
O=[N+]([O-])c1ccc2c(c1)n1c(N3CCCC3)[n+]3ccccc3c1c1c3cccc[n+]3c(N3CCCC3)n21,TGI,[1],42.6 µM
same,TGI,[2],> 100 µM
same,TGI,[3],> 100 µM
same,TGI,[4],> 100 µM
same,TGI,[5],> 100 µM
same,TGI,[6],> 100 µM
same,TGI,[7],> 100 µM
same,TGI,[8],> 100 µM
same,TGI,[9],> 100 µM
same,TGI,[10],> 100 µM
C=C(CCOC)CCC1CCCCC(=C)[C@H]1O (some centres undefined),TGI,[1],> 100 µM
same,TGI,[11],> 100 µM
same,TGI,[2],> 100 µM
same,TGI,[4],> 100 µM
same,TGI,[5],> 100 µM
same,TGI,[6],> 100 µM
same,TGI,[7],> 100 µM
same,TGI,[8],> 100 µM
same,TGI,[9],> 100 µM
same,TGI,[10],> 100 µM
O=c1[nH]c2cc([N+](=O)[O-])c(Nc3c4ccccc4nc4ccccc34)c([N+](=O)[O-])c2[nH]1,TGI,[1],10.5 µM
same,TGI,[11],5.98 µM
same,TGI,[2],7.39 µM
same,TGI,[3],5.09 µM
same,TGI,[4],17.6 µM
same,TGI,[5],9.33 µM
same,TGI,[6],22.6 µM
same,TGI,[8],15.2 µM
same,TGI,[9],12.3 µM
same,TGI,[10],8.25 µM
CC1(C)[C@@H](OC(N)=O)C=C[C@]2(CO)[C@H]3CC[C@]4(C)[C@@H](c5ccc(=O)oc5)[C@@H](Cl)C[C@]4(O)C3=CC[C@@H]12,GI50,[1],< 0.0001 µM
same,TGI,[1],0.00254 µM
same,GI50,[11],0.00351 µM
same,TGI,[11],0.0134 µM
same,GI50,[2],< 0.0001 µM
same,TGI,[2],0.0104 µM
same,GI50,[3],0.00239 µM
same,TGI,[3],0.00524 µM
same,GI50,[5],< 0.0001 µM
same,TGI,[5],0.00411 µM
same,GI50,[6],0.0043 µM
same,TGI,[6],0.0158 µM
same,GI50,[8],0.00189 µM
same,TGI,[8],0.0137 µM
same,GI50,[9],< 0.0001 µM
same,TGI,[9],0.00192 µM
same,GI50,[10],0.00917 µM
same,TGI,[10],0.0956 µM
